Counter-ions that a name gives are not always drawn.
What was measured:
[1] = tested on: acoustic trauma induced hearing loss; assay: Auditory brainstem response (ABR) thresholds after acoustic trauma; format: in vivo, Wistar rats
Method: All experiments were performed using 7 week old male Wistar rats (CERJ, Le Genest, France) in accordance with the French Ministry of Agriculture regulations and European Community Council Directive no. 86/609/EEC, OJL 358. The rats were fed a standard diet ad libitum and maintained on a 12 h light-dark cycle.
Auditory Brainstem Reponses (ABR) and Distortion Product Otoacoustic Emissions (DPOAE) were recording using a RZ6 Auditory Workstation (Tucker-Davis Technologies, Alachua, FL, USA) with animals deeply anesthetized using 90 mg/kg ketamine and 10 mg/kg xylazine and placed on a 35° C. recirculating heating pad inside a sound attenuating cubicle (Med Associates Inc., St. Albans, VT, USA) throughout the experiment.
For ABR recordings, three stainless steel needle electrodes were placed subdermally over the vertex, the right mastoid and right hind leg of each animal. Tone-pips (5 msec duration presented at a rate of 21/s) at 8, 16 and 24 kHz were delivered to the right ear using a calibrated MF-1 speaker in closed-field configuration (Tucker-Davis Technologies, Alachua, FL, USA) at attenuating intensity until no reproducible response could be recorded. Close to the ABR threshold, the responses to 1000 acoustic stimuli in 5 dB steps were averaged. Responses were low-pass filtered at 3 kHz.
(§1) Animals were exposed to 121 dB octave band noise (8-16 kHz) for 2 h in groups of 4 rats, placed in individual compartments of a custom built circular cage placed on a 30 cm diameter platform rotating at 3 turns/minute (Aqila Innovation, Valbonne, France). The calibrated octave band noise generated by the RZ6 SigGen software was further amplified by a Crown D-75 amplifier in bridge mode (Crown Audio, Elkhart, IN, USA) and delivered by four Beyma CP16 compression tweeters (Acustica Beyma S. L., Moncada, Valencia, Spain) positioned 39 cm above the rotating platform, each 10 cm from the platform center.
(§2) Animals were treated by intraperitoneal injection daily for 14 days beginning immediately after acoustic trauma induction and subsequently repeated every 24 hours. The setron compounds granisetron HCl, ondansetron HCl, tropisetron HCl and azasetron HCl (Tocris Bioscience, Bristol, UK) were delivered dissolved in saline solution (1.6 mL/kg) while Tacrolimus (Selleck Chemicals, Houston, TX, USA) was dissolved in solution composed of 10% ethanol-100%/10% Kolliphor EL/1% Tween 80/79% saline (1.0 mL/kg). Placebo treated animals received injections of 1.6 mL/kg saline following the same treatment schedule.
(§3) Statistical analysis was performed using two-way ANOVA (Audiometry data: frequency and treatment group. Cochleograms: normalized distance from apex and treatment group) followed by Holm-Sidak post-hoc test for multiple comparisons. Results are given as mean±SEM and a p value less than or equal to 0.05 considered significant.
Baseline line audiometry (ABR and DPOAE measures) was performed for each animal 3 days before acoustic trauma was induced. Subsequently, audiometry measures were repeated 24 h and 14 days after acoustic trauma.
To quantify and compare the difference in treatment effects between groups while taking into account individual baseline and trauma variability, the hearing loss (ABR threshold shift & DPOAE amplitude loss) at D14 relative to baseline, as well as the functional recovery of hearing from 24 h to D14 (ABR threshold shift & DPOAE amplitude loss) were determined for all treatment groups.

outer hair cells = assay: Outer hair cell loss (cytocochleograms) in cochleae fixed at D14 after acoustic trauma; format: in vivo, Wistar rats
Method: as §1, §2
After audiometry on day 14, animals were deeply anaesthetized with an intraperitoneal injection of pentobarbital (100 mg/kg). The cochleae were removed, fixed with 4% paraformaldehyde, pH 7.4, decalcified with 10% EDTA, pH 7.4 and then stained with myosin VIIa 1/1000. […] The mean loss of OHCs per group was subsequently calculated as a function of normalized distance from the apex in bins of 2.5% of the total length, using the total length of each histological specimen. Cell counts could reliably be obtained for up to 90% of the total distance from the apex (corresponding to the tonotopic region up to from 0 kHz to ~50 kHz in rat, Viberg & Canlon 2004), while the last 10% was too variable due to damage incurred during dissection.
as §3
To further support the conclusions from the functional audiometry data, the loss of outer hair cells in four treatment group was determined by constructing cytocochleograms from histological preparations of cochleae fixed after audiometry on day 14.

[2] = i.p. daily for 14 days after acoustic trauma, same doses as E4

SMILES: CN1C(=O)COc2c(C(=O)NC3CN4CCC3CC4)cc(Cl)cc21 (stereo not shown) [azasetron HCl, N-(1-azabicyclo[2.2.2]octan-8-yl)-6-chloro-4-methyl-3-oxo-1,4-benzoxazine-8-carboxamide]
- reduction of ABR threshold shifts compared to placebo treatment ([1]; day 14, i.p. daily for 14 days after acoustic trauma): 35-60%
- ABR threshold recovery from 24 h to day 14 compared to placebo [1, 2]: better ABR threshold recovery
- hearing outcomes (ABR thresholds and DPOAE amplitudes) at 14 days after acoustic trauma compared to placebo [1, 2]: better hearing outcomes across all frequencies
- ABR threshold shift from baseline to day 14 compared to placebo ([1]; i.p. daily for 14 days from immediately after 121 dB trauma, azasetron HCl 4.22, ondansetron HCl 4, tropisetron HCl 3.5, granisetron HCl 3.8, Tacrolimus 1.5 mg/kg): significantly lower ABR threshold shifts
- ABR threshold improvement graded by typical clinical audiological criteria (Furuhashi et al. 2002) ([1]; placebo group only "slight improvement"): marked improvement to complete recovery
- mean loss of outer hair cells compared to placebo (outer hair cells; cochleae fixed after audiometry on day 14): significantly lower mean loss
- reduction of mean outer hair cell loss compared to placebo treatment (outer hair cells; cochleae fixed at day 14): 50-75%

From patent US12702671B2, “Calcineurin inhibitors of the setron family for the treatment of hearing loss” (SENSORION, priority 2015, dated 2026)
